Measured values as given in article PMC4836675, “Tetrabromobisphenol A Is an Efficient Stabilizer of the Transthyretin Tetramer” (PLoS ONE, 2016).
“Also recorded” adds a separate entry of the source. Where two headings read alike, the source gives them in different places.

How the values were obtained:
WT-TTR = target: T1, WT-TTR (Homo sapiens, UniProt P02766); assay: Turbidity assay of TTR aggregation at low pH; type: biochemical; details: WT-TTR 15 μM tetramer, compound 15 μM, pH 4.5, 72 h
T1 construct: made in house; host or cells: E. coli BL21
Experimental: (§1) Amyloid formation by TTR can be induced at low pH, which results in disruption of the tetramer and the subsequent formation of aggregates. This event can be monitored by a simple turbidity measurement.
(§2) Aggregation of WT-TTR and V30M-TTR was initiated by lowering the pH to 4.5 using a sodium-acetate/acetic acid buffer followed by incubation for 72 h. The percentage of aggregation relative to the control was monitored by measuring the turbidity at 400 nm.
(§3) In order to prevent microbial growth, all samples and controls were supplemented with 0.05% NaN3. Dissociation and subsequent aggregation of TTR was initiated by adding 50 mM sodium acetate at pH 4.5 and incubating at 37°C under agitation conditions. The formation of TTR aggregates was monitored by turbidity measurement at 400 nm in a TECAN Safire plate reader after incubating for 72 h. All experiments were performed five times.

V30M-TTR = target: T2, V30M-TTR (Homo sapiens, UniProt P02766, V50M); assay: Turbidity assay of TTR aggregation at low pH; type: biochemical; details: V30M-TTR 15 μM tetramer, compound 15 μM, pH 4.5, 72 h
T2 construct: made in house; host or cells: E. coli BL21
Experimental: as §1, §2, §3

[1] = cited from earlier work; for Serum concentration: after seven days, 12 hours after last dose
[2] = tested on: SH-SY5Y neuroblastoma cells; assay: TTR-mediated cytotoxicity, resazurin cell-viability assay; details: TTR 15 μM, compound 15 μM, 72 h
Experimental: The cytotoxic effect of TTR was monitored by a decrease in the conversion of resazurin to resorufin.
Cell viability was measured with a resazurin assay [46]. Data are reported as the mean cell viability ± the standard deviation (n = 3, ** p < 0.01; *** p < 0.001). […] The statistical significance was assessed using one-way ANOVA.
The human neuroblastoma cell line SH-SY5Y was obtained from the European Collection of Cell Cultures (Centre for Applied Microbiology and Research). SH-SY5Y cells were cultured according to a previous report [79] with minor modifications. The cells were grown in MEM and GlutaMax medium (Gibco) and supplemented with 10% (v/v) fetal bovine serum (Gibco), 100 units/mL penicillin, 100 μg/mL streptomycin (Gibco), and 1% non-essential amino acid solution (Gibco). Cultures were maintained in an incubator at 37°C with a humidified atmosphere of 5% CO2. […] All experiments were performed in triplicate.

TTR = target: T3, TTR (Homo sapiens, UniProt P02766); assay: Isothermal titration calorimetry (ITC); type: binding
T3 construct: made in house; host or cells: E. coli BL21
Experimental: ITC experiments were performed using an Auto-iTC200 (MicroCal) at 25°C. […] For each experiment, 19 automated injections of 2 μL and a duration 0.8 s were performed with 300 s intervals between each injection and with a stirring speed of 1000 rpm. The titrations were done with high feedback and a filter period of 5 s and were repeated twice. Calorimetric data were plotted and fitted using the standard single-site binding model.

[3] = cited from earlier work
Sprague—Dawley rats = tested on: Sprague—Dawley rats; parameters: method as in PMID 25523853; details: prolonged daily oral 100, 300, or 1000 mg·kg−1·day−1; cited from earlier work
[4] = tested on: Salmonella typhimurium, Escherichia coli, and yeast cells; details: with and without metabolic activation; cited from earlier work
plasma TTR = plasma TTR (Homo sapiens, UniProt P02766); assay: Drug efficacy/selectivity in human plasma (urea denaturation, western blot of monomeric TTR)
Experimental: The ability of a drug to stabilize the tetrameric form of TTR by binding to the hydrophobic hormone binding pockets at the dimer interface of the tetramer is directly correlated to the drug’s binding affinity.
The dissociation of plasma TTR was initiated by the addition of urea at a final concentration of 4.0 M. The dissociation to monomeric TTR was monitored by western blot and quantified with the ImageJ 2.0 software.
Briefly, plasma was buffered by the addition of 20 μL phosphate buffer from a 1 M stock solution to reach a final concentration of 20 mM, pH 7.4. […] To initiate the denaturation of the TTR tetramer, urea was added to a final concentration of 4 M followed by 18 h of incubation at 25°C. In the absence of a stabilizing ligand, this treatment causes dissociation and monomerization of the TTR tetramer. […] The monomeric band on the membrane was visualized by western blot according to standard protocols using a rabbit anti-TTR antibody (anti-prealbumin, DAKO) followed by a horseradish peroxidase-labeled antibody (anti-rabbit HRP, GE Healthcare). Nonspecific binding of antibodies was prevented by the addition of 5% fat-free powdered milk and 0.3% Tween-20. Enhanced chemiluminescence (ECL-prime, GE Healthcare) was used to visualize the bound antibodies. The bands containing the TTR monomer were quantified through densitometric analysis using the ImageJ 1.48 program.

[5] = parameters: method as in earlier work; details: steady state after 14 days of daily administration; cited from earlier work
[6] = rats, single oral dose 300 mg/kg body weight

O=C(O)c1cc(-c2ccc(F)cc2F)ccc1O [Diflunisal, diflunisal]
Aggregation of TTR at low pH (turbidity at 400 nm) (WT-TTR): prevents the aggregation | Aggregation of TTRVal30Met at low pH (turbidity at 400 nm) (V30M-TTR): prevents the aggregation | Serum concentration ([1]; 250 mg twice per day): 145 µM | Serum concentration ([1]; 500 mg twice per day): 420 µM | Bioavailability ([1]; oral administration): good | Cell survival in presence of cytotoxic TTR [2]: increased cell survival to essentially that of the untreated control cells

CC(C)(c1cc(Br)c(O)c(Br)c1)c1cc(Br)c(O)c(Br)c1 [TBBPA, 2,2’,6,6’-tetrabromo-4,4’-isopropylidentediphenol]
Kd (TTR; 25°C, assuming independent binding sites (single-site model), read-out: Binding affinity to TTR (Kd)): 0.02 µM | Kd (TTR; negative cooperativity, first site, read-out: Kd1): 0.006 µM | Kd (TTR; read-out: Kd2, negative cooperativity, second site): 0.975 µM | Aggregation of TTR at low pH (turbidity at 400 nm) (WT-TTR): efficiently prevents the aggregation | Aggregation of TTRVal30Met at low pH (turbidity at 400 nm) (V30M-TTR): efficiently prevents the aggregation | Oral bioavailability ([3]; animals, oral intake, compared to tafamidis and diflunisal): low bioavailability | Half-lives ([3]; oral 200, 500 and 1000 mg/kg): 7.5 to 9.5 h | Half-life [3, 6]: around 13 h | Time of maximal serum concentration [3, 6]: 3 h | Elimination half-life ([3]; single oral dose 250 mg/kg body weight, 14C-TBBPA, non-compartmental model): around 4.5 h | Time of maximal plasma concentration post-dose ([3]; single oral dose 250 mg/kg body weight, 14C-TBBPA): 127 min | Mortality and neuropathological ailments (Sprague—Dawley rats): did not result in increased mortality or the development of neuropathological ailments | Genotoxicity in Ames tests [4]: negative results | Cell survival in presence of cytotoxic TTR [2]: increased cell survival to essentially that of the untreated control cells | IC50 (plasma TTR; IC50 plasma, human plasma, 2 h incubation, 4 M urea, three independent experiments): 3.3 ± 0.5 µM | Saturation of the high-affinity binding site of TTR (plasma TTR; at a TBBPA plasma concentration of 5 μM, based on the IC50 value): 48% | Stabilization of TTR tetramer in human plasma (plasma TTR; human plasma, 4 M urea): effectively stabilizes TTR at a stoichiometric ratio in plasma; also recorded: pronounced stabilizing effect on TTR is observed even at concentrations as low as 4 μM

O=C(O)c1ccc2nc(-c3cc(Cl)cc(Cl)c3)oc2c1 [Tafamidis, tafamidis]
Aggregation of TTR at low pH (turbidity at 400 nm) (WT-TTR): prevents the aggregation | Aggregation of TTRVal30Met at low pH (turbidity at 400 nm) (V30M-TTR): prevents the aggregation | Clinically beneficial plasma concentration [5]: 3.5 to 8.5 µM | Cell survival in presence of cytotoxic TTR [2]: increased cell survival to essentially that of the untreated control cells | Saturation level of TTR (plasma TTR; from IC50 around 5 μM and tafamidis plasma concentration 3.5–8.5 μM, TTR 4 μM): 31–56%
